Patent USRE38352E1, “Polymerase chain reaction assays for monitoring antiviral therapy and making therapeutic decisions in the treatment of acquired immunodeficiency syndrome” (priority 1992, dated 2003)
Several values for one entry are separate records, joined by “and”; a condition that tells them apart may be missing. Equal values may be shown once.

Test system: plasma HIV RNA
Assay: Plasma HIV RNA copy number by cDNA gene amplification (PCR) and enzyme-linked affinity assay
Format: in vivo, human (HIV antibody-positive subjects)
From the text: After informed consent was obtained, whole blood samples were collected by venipuncture in the presence of acid-citrate-dextrose as an anticoagulant. A single plasma sample was collected from 39 HIV antibody-positive subjects who were not receiving antiretroviral therapy at the time of collection and from 33 HIV antibody-positive subjects who were currently on and had received AZT for a minimum of 3 mo.
Two plasma samples were collected from an additional 27 subjects before and 1 month after initiation of dideoxynucleoside therapy. 18 of these subjects received 500 mg/d of AZT orally. Seven subjects received a combination of zidovudine (150-600 mg/d) and 2′,3′-dideoxyinosine (ddI) (134-500 mg/d). Two patients received 500 mg/d of ddI alone (see Table I for individual subject characteristics). Finally, nine of these subjects had two plasma samples taken 1-3 wk. before initiating antiretroviral therapy and two plasma samples taken 1 and 2 mo. after commencing therapy. Plasma was separated within 4 h. by centrifugation at 500 g for 10 min. A second centrifugation was performed on the plasma at 500 g for 30 min. to remove any cellular material. 200 μl of plasma was then mixed with 200 μl of a solution containing 5M guanidinium thiocyanate, vortexed briefly, and stored at −70° C. until further use. All samples were assayed within 3 mo. of collection. To decrease variance, all specimens to be compared from the same subject were run in the same assay.
RNA was extracted from plasma by the method described in Chomczynski et al., 1987, Ann. Biochem. 162:156-159. Briefly, 200 μl of clarified plasma to which 200 μl of 5M guanidinium thiocyanate had previously been added was extracted with phenol/chloroform and precipitated with isopropanol. The resulting pellet was then washed in 75% ethanol, dried, and brought up in diethylpyrocarbonate treated, glass distilled water.
HIV RNA was transcribed to cDNA using Moloney murine leukemia virus reverse transcriptase (Bethesda Research Laboratories, Gaithersburg, Md.) by the method described in Kawasaki, 1990, “In PCR Protocols: A Guide to Methods and Applications” pp. 21-27, M. A. Innis, D. H. Gelfand, J. J. Sninsky, and T. J. White, eds. Academic Press, Berkeley, Calif. Oligomers used for amplification included SK38, SK39, and SK19 (Kellog et al., 1990, “In PCR Protocols: A Guide to Methods and Applications,” pp. 337-348, M. A. Innis, D. H. Gelfand, J. J. Sninsky, and T. J. White, eds. Academic Press, Berkeley, Calif.). Biotinylation of SK38 and horseradish peroxidase (HRP) labeling of probe SK19 were prepared as described in Levenson et al., 1990, “In PCR Protocols: A Guide to Methods and Applications,” pp. 99-112M. S. Innis, D. H. Gelfand, J. J. Sninsky, and T. J. White, eds. Academic Press, Berkeley, Calif. Amplification of HIV cDNA was carried out as follows: to a 100-μl reaction mixture was added the cDNA, 50 pmol of primers SK38 and SDK39, […] of each dNTP, 10 mM Tris (pH 8.3), 2.5 mM MgCl2, 50 mM KCl, and 2.5 U of recombiTaq DNA polymerase (Perkin-Elmer Cetus, Norwalk, Conn.). The mixture was then overlaid with 50 μl of mineral oil. Tubes were placed in a DNA thermal cycler (Perkin-Elmer Cetus) for 30 cycles of amplification with the following program: 95° C./30 s, 55° C./30s, and 72° C./60 s for denaturation, annealing, and extension, respectively. Negative and positive controls which included both high and low copy number HIV RNA and DNA were added at each step.
To detect and quantitate PCR product, 96-well microplates (Maxisorp; Nunc, Naperville, Ill.) were coated with 100 μl of a 0.1 mg/ml solution of avidin (Sigma Chemical Co., St. Louis, Mo.) in 50 mM Na2CO3 (pH 9.6) overnight at room temperature. Wells were then washed twice with PBS. Wells were then filled with 300 μl of a blocking solution containing 5X Denhardt's solution, 1% gelatin (Sigma), […] sheared herring sperm DNA (Promega Biotec, Madison, Wis.) at least overnight at 4° C. […]

Cc1cn([C@H]2C[C@H](N=[N+]=[N-])[C@@H](CO)O2)c(=O)[nH]c1=O [AZT, zidovudine]
mean HIV RNA copy number (14 subjects on AZT with CD4 count <200/mm^3): 295±5 per 200 μl of plasma | mean HIV RNA copy number (19 subjects on AZT with CD4 count >200/mm^3, below level of detection): 16±5 per 200 μl of plasma | mean plasma HIV RNA copy number (33 subjects currently on AZT (minimum 3 mo), mean±SEM, untreated 690±360): 134±219 per 200 μl of plasma | subjects with positive HIV RNA signal (AZT-treated subjects with <200 CD4 cells): 9 of 14 | subjects with positive HIV RNA signal (all subjects receiving AZT, untreated 32 of 39): 16 of 33 | Post HIV RNA (in vivo): 2769/437 copy number/200 μl of plasma | Pre HIV RNA (in vivo): 2769/437 copy number/200 μl of plasma | subjects with detectable HIV RNA signal (in vivo): 7 of 19 | Post HIV RNA (individual patient, 1 mo after initiation, AZT 500 mg/d): 77 copy number/200 μl of plasma and 57 copy number/200 μl of plasma and 42 copy number/200 μl of plasma and 94/94 copy number/200 μl of plasma and 0/0 copy number/200 μl of plasma (2×) and 65 copy number/200 μl of plasma and 52 copy number/200 μl of plasma and 50 copy number/200 μl of plasma and 45 copy number/200 μl of plasma and 95/95 copy number/200 μl of plasma and 0 copy number/200 μl of plasma (3×) and 72 copy number/200 μl of plasma and 925 copy number/200 μl of plasma and 90 copy number/200 μl of plasma | Pre HIV RNA (individual patient, before initiation of therapy): 100 copy number/200 μl of plasma and 87 copy number/200 μl of plasma and 40 copy number/200 μl of plasma and 94/94 copy number/200 μl of plasma and 0/0 copy number/200 μl of plasma (2×) and 93 copy number/200 μl of plasma and 105 copy number/200 μl of plasma and 123 copy number/200 μl of plasma and 78 copy number/200 μl of plasma and 95/95 copy number/200 μl of plasma and 301 copy number/200 μl of plasma and 958 copy number/200 μl of plasma and 2014 copy number/200 μl of plasma and 106 copy number/200 μl of plasma and 130 copy number/200 μl of plasma and 550 copy number/200 μl of plasma
